From publication PMC12207366, “Protonated Glutamate and Aspartate Side Chains Can Recognize Phosphodiester Groups via Strong and Short Hydrogen Bonds in Biomacromolecular Complexes” (Angewandte Chemie (International Ed. in English), 2025)

Legend:
PilF159-302 Q218E [1] = molecular target: T1, PilF159-302 Q218E (Thermus thermophilus, UniProt Q72H73, Q218E); assay: ITC c-di-GMP binding to Q218E mutant, pH series; conditions: 20 °C
T1 sequence (Q72H73 159-302 Q218E): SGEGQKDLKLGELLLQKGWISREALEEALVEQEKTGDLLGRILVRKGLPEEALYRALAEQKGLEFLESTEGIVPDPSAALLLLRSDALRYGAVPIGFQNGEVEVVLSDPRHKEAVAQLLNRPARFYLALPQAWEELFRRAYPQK
Description: (§1) To characterize c-di-GMP binding by PilF159-302, the Q190E and Q218E constructs via isothermal titration calorimetry (ITC) and X-ray crystallography unlabeled c-di-GMP was synthesized using a constitutively active mutant of a diguanylate cyclase from the thermophilic bacterium Thermogata maritima ^[4^4,4^5]. For NMR experiments ^13C,^15N labelled c-di-GMP was synthesized identically using ^13C,^15N labelled GTP as a substrate.
(§2) c-di-GMP binding capabilities of PilF159-302, its mutant constructs PilF159-302 Q190E and PilF159-302 Q218E at varying pH-values were investigated by isothermal titration calorimetry (ITC) experiments in triplicate. All measurements were conducted at 20 °C using a MicroCal ITC200 (Malvern Panalytical, UK). For PilF159-302 Q190E and PilF159-302 Q218E ITC-measurements were conducted in a pH range from pH 8.5 – 4.0 with the buffering agent adjusted to the respective pH-range. For the pH-range 8.5 – 7.5 a sample buffer of 50 mM Tris, 200 mM NaCl and 1 mM β-Me was used. For pH values 7.0 – 6.0 a sample buffer of 50 mM BisTris, 200 mM NaCl, 1 mM β-Me and for pH 5.5 – 4.0 a sample buffer of 50 mM NaAc, 200 mM NaCl, 1 mM β-Me was used. For reference PilF159-302 was titrated with c-di-GMP at pH 8.5 in 50 mM Tris pH 8.5, 200 mM NaCl, 1 mM β-Me and at pH 4.0 in 50 mM NaAc pH 4.0, 200 mM NaCl, 1 mM β-Me. In order to test whether the buffer reagents have an influence on the measured thermodynamic parameters, cross measurements were performed in the region of the pH transitions. To this end, additional measurements with BisTris at pH 7.5 and 5.5, with Tris at pH 7.0 and with NaAc at pH 6.0 were carried out as singlets. The buffer agents had no influence on measured KD-values and resulted only in small changes of the ΔH values. All protein samples were dialyzed two times against 500 ml of the respective sample buffer (1 L in total) at 4 °C for at least 16 hours per step using a dialysis chamber with a nominal 3.5 kDa molecular weight cutoff (ZelluTrans, ROTH). To prepare the ITC-measurements protein and c-di-GMP sample were adjusted to the respective concentration using the dialysis buffer. Protein and c-di-GMP concentration ranged from 20 to 50 µM (protein) and 200 to 500 µM (c-di-GMP) depending on the c-di-GMP binding capabilities at the different pH-values to optimize precision of the measurements. For pH 8.5 – 7.0 a protein concentration of 50 µM with 500 µM c-di-GMP was used. For pH 6.5 – 5.0 a protein concentration of 30 µM with 300 µM c-di-GMP and for pH 4.5 – 4.0 a protein concentration of 20 µM with 200 µM c-di-GMP was used. The following protocol was utilized for each measurement. To 270 µl protein a total of 40 µl c-di-GMP was titrated in 21 injections with a duration of 4 s in intervals of 180 s with a stirring speed of 750 rpm. The first injection of 0.2 µl c-di-GMP with a duration of 0.4 s was carried out after an initial delay of 120 s, which was followed by 20 injections of 2 µl each with a duration of 4 s. During the measurement, the feedback mode was set to high and the reference power to 11 µcal s^-1. All thermograms were processed using Origin 7.0 (OriginLab) using the one-site binding model.

PilF159-302 WT = molecular target: T2, PilF159-302 WT (Thermus thermophilus, UniProt Q72H73); assay: ITC c-di-GMP binding to wild-type GSPII-B domain; conditions: for -TΔS / Kd / ΔG / ΔH: 20 °C
T2 sequence (Q72H73 159-302): T1 sequence (Q72H73 159-302 Q218E)
Description: as §1, §2

PilF159-302 Q190E [2] = molecular target: T3, PilF159-302 Q190E (Thermus thermophilus, UniProt Q72H73, Q190E); parameters: method as in PMID 39615687; conditions: in vitro, pH 7.5; cited from earlier work
T3 sequence (Q72H73 159-302 Q190E): T1 sequence (Q72H73 159-302 Q218E)

PilF159-302 Q218E [3] = molecular target: T1, PilF159-302 Q218E; parameters: method as in PMID 39615687; conditions: in vitro, pH 7.5; cited from earlier work
PilF159-302 Q190E [4] = molecular target: T3, PilF159-302 Q190E; assay: ITC c-di-GMP binding to Q190E mutant, pH series; conditions: Bis-Tris, 20 °C
Description: as §1, §2

[5] = pH 5.5, buffer cross measurement, singlet

With `Nc1nc2c(ncn2C2OC3COP(=O)(O)OC4C(COP(=O)(O)OC3C2O)OC(n2cnc3c(=O)[nH]c(N)nc32)C4O)c(=O)[nH]1` (stereo not drawn) [c-di-GMP] the “-TΔS” value (PilF159-302 Q218E [1]; Bis-Tris, pH 6.0) was -2.23 ± 0.80 kcal/mol, the Kd (PilF159-302 Q218E [1]; Bis-Tris, pH 6.0) was 64 ± 7 nM and the N (PilF159-302 Q218E [1]; Bis-Tris, pH 6.0) was 1.03 ± 0.23. For the same compound, the ΔG (PilF159-302 Q218E [1]; Bis-Tris, pH 6.0) was -9.64 ± 0.06 kcal/mol, the ΔH (PilF159-302 Q218E [1]; Bis-Tris, pH 6.0) was -7.42 ± 0.75 kcal/mol and the “-TΔS” value (PilF159-302 Q218E [1]; Bis-Tris, pH 6.5) was -1.48 ± 0.23 kcal/mol. It also gave a Kd (PilF159-302 Q218E [1]; Bis-Tris, pH 6.5) of 110 ± 3 nM, an N (PilF159-302 Q218E [1]; Bis-Tris, pH 6.5) of 1.00 ± 0.27 and a ΔG (PilF159-302 Q218E [1]; Bis-Tris, pH 6.5) of -9.33 ± 0.02 kcal/mol. For the same compound, the ΔH (PilF159-302 Q218E [1]; Bis-Tris, pH 6.5) was -7.86 ± 0.22 kcal/mol, the “-TΔS” value (PilF159-302 Q218E [1]; Bis-Tris, pH 7.0) was -2.05 ± 0.07 kcal/mol and the Kd (PilF159-302 Q218E [1]; Bis-Tris, pH 7.0) was 249 ± 7 nM. For the same compound, the N (PilF159-302 Q218E [1]; Bis-Tris, pH 7.0) was 0.90 ± 0.16, the ΔG (PilF159-302 Q218E [1]; Bis-Tris, pH 7.0) was -8.85 ± 0.02 kcal/mol and the ΔH (PilF159-302 Q218E [1]; Bis-Tris, pH 7.0) was -6.80 ± 0.08 kcal/mol. The Kd (PilF159-302 Q218E [1]; Na-Acetate, pH 4.0) was 23 ± 10 nM, the N (PilF159-302 Q218E [1]; Na-Acetate, pH 4.0) was 0.84 ± 0.07 and the “-TΔS” value (PilF159-302 Q218E [1]; Na-Acetate, pH 4.5) was -2.56 ± 0.49 kcal/mol. For the same compound, the Kd (PilF159-302 Q218E [1]; Na-Acetate, pH 4.5) was 61 ± 7 nM, the N (PilF159-302 Q218E [1]; Na-Acetate, pH 4.5) was 0.90 ± 0.04 and the ΔG (PilF159-302 Q218E [1]; Na-Acetate, pH 4.5) was -9.68 ± 0.07 kcal/mol. For the same compound, the ΔH (PilF159-302 Q218E [1]; Na-Acetate, pH 4.5) was -7.12 ± 0.44 kcal/mol, the “-TΔS” value (PilF159-302 Q218E [1]; Na-Acetate, pH 5.0) was -1.47 ± 0.47 kcal/mol and the Kd (PilF159-302 Q218E [1]; Na-Acetate, pH 5.0) was 36 ± 8 nM. The N (PilF159-302 Q218E [1]; Na-Acetate, pH 5.0) was 1.31 ± 0.09, the ΔG (PilF159-302 Q218E [1]; Na-Acetate, pH 5.0) was -9.99 ± 0.13 kcal/mol and the ΔH (PilF159-302 Q218E [1]; Na-Acetate, pH 5.0) was -8.53 ± 0.44 kcal/mol. For the same compound, the “-TΔS” value (PilF159-302 Q218E [1]; Na-Acetate, pH 5.5) was -0.40 ± 1.00 kcal/mol, the Kd (PilF159-302 Q218E [1]; Na-Acetate, pH 5.5) was 28 ± 10 nM and the N (PilF159-302 Q218E [1]; Na-Acetate, pH 5.5) was 0.97 ± 0.09. The ΔG (PilF159-302 Q218E [1]; Na-Acetate, pH 5.5) was -10.17 ± 0.20 kcal/mol, the ΔH (PilF159-302 Q218E [1]; Na-Acetate, pH 5.5) was -9.78 ± 0.92 kcal/mol and the “-TΔS” value (PilF159-302 Q218E [1]; Tris, pH 7.5) was -3.22 ± 0.17 kcal/mol. The Kd (PilF159-302 Q218E [1]; Tris, pH 7.5) was 342 ± 26 nM, the N (PilF159-302 Q218E [1]; Tris, pH 7.5) was 0.92 ± 0.07 and the ΔG (PilF159-302 Q218E [1]; Tris, pH 7.5) was -8.67 ± 0.04 kcal/mol. For the same compound, the ΔH (PilF159-302 Q218E [1]; Tris, pH 7.5) was -5.45 ± 0.13 kcal/mol, the “-TΔS” value (PilF159-302 Q218E [1]; Tris, pH 8.0) was 0.99 ± 0.27 kcal/mol and the Kd (PilF159-302 Q218E [1]; Tris, pH 8.0) was 432 ± 25 nM. For the same compound, the N (PilF159-302 Q218E [1]; Tris, pH 8.0) was 1.12 ± 0.05, the ΔG (PilF159-302 Q218E [1]; Tris, pH 8.0) was -8.53 ± 0.03 kcal/mol and the ΔH (PilF159-302 Q218E [1]; Tris, pH 8.0) was -9.52 ± 0.31 kcal/mol. For the same compound, the “-TΔS” value (PilF159-302 Q218E [1]; Tris, pH 8.5) was 2.15 ± 0.18 kcal/mol, the Kd (PilF159-302 Q218E [1]; Tris, pH 8.5) was 463 ± 13 nM and the N (PilF159-302 Q218E [1]; Tris, pH 8.5) was 0.73 ± 0.14. For the same compound, the ΔG (PilF159-302 Q218E [1]; Tris, pH 8.5) was -8.49 ± 0.02 kcal/mol, the ΔH (PilF159-302 Q218E [1]; Tris, pH 8.5) was -10.65 ± 0.16 kcal/mol and the “c-di-GMP binding affinity, pH dependence” value (PilF159-302 WT; ITC, pH 4.0 versus pH 8.5) was “similar”. For the same compound, the “-TΔS” value (PilF159-302 WT; Na-Acetate, pH 4.0) was -4.81 kcal/mol, the Kd (PilF159-302 WT; Na-Acetate, pH 4.0) was 4 nM and the ΔG (PilF159-302 WT; Na-Acetate, pH 4.0) was -11.26 kcal/mol. For the same compound, the ΔH (PilF159-302 WT; Na-Acetate, pH 4.0) was -6.45 kcal/mol, the “-TΔS” value (PilF159-302 WT; Tris, pH 8.5) was 0.63 kcal/mol and the Kd (PilF159-302 WT; Tris, pH 8.5) was 9 nM. For the same compound, the ΔG (PilF159-302 WT; Tris, pH 8.5) was -10.78 kcal/mol, the ΔH (PilF159-302 WT; Tris, pH 8.5) was -11.41 kcal/mol and the “c-di-GMP binding affinity relative to WT” value (PilF159-302 Q190E [2]) was “significantly reduced affinity”. The “c-di-GMP binding affinity relative to WT” value (PilF159-302 Q218E [3]) was “significantly reduced affinity”, the “-TΔS” value (PilF159-302 Q190E [4]; [5]) was -2.53 kcal/mol and the Kd (PilF159-302 Q190E [4]; [5]) was 71 nM. The ΔG (PilF159-302 Q190E [4]; [5]) was -9.58 kcal/mol, the ΔH (PilF159-302 Q190E [4]; [5]) was -7.06 kcal/mol and the “-TΔS” value (PilF159-302 Q190E [4]; pH 6.0) was -3.45 ± 0.05 kcal/mol.
